In EPA's ToxRefDB 2:

Columns and labels:
mouse [1] = conditions: Carcinogenicity, cd1, Oral, Feed, dose end: 19 month, group: systemic
rat [2] = conditions: Subchronic oral toxicity in rodents, sprague dawley, Feed, dose end: 90 day, group: systemic
dog [3] = conditions: Chronic toxicity, beagle, Oral, Feed, dose end: 52 week, group: systemic
rat [4] = conditions: Combined chronic toxicity/carcinogenicity; other; Oral; Feed; dose end: 102 week; group: systemic; systemic / pathology microscopic / kidney / degeneration + systemic / pathology microscopic / kidney / dilatation + systemic / pathology …
dog [5] = conditions: Subchronic oral toxicity in nonrodent, beagle, Feed, dose end: 90 day, group: systemic
rat [6] = conditions: Subchronic oral toxicity in rodents, sprague dawley, Feed, dose end: 13 week, group: systemic, systemic / clinical chemistry / urea nitrogen / urea nitrogen + systemic / clinical chemistry / creatinine / creatinine + systemic / …
mouse [7] = conditions: Subchronic oral toxicity in rodents, cd1, Feed, dose end: 13 week, group: systemic, systemic / clinical chemistry / alkaline phosphatase (alp/alk) / alkaline phosphatase (alp/alk) + systemic / in life observation / clinical …
rat [8] = conditions: Subchronic oral toxicity in rodents, sprague dawley, Feed, dose end: 13 week, group: systemic
dog [9] = conditions: Subchronic oral toxicity in nonrodent, beagle, Feed, dose end: 6 week, group: systemic, systemic / in life observation / body weight / body weight gain + systemic / clinical chemistry / alanine aminotransferase (alt/sgpt) / …
dog [10] = conditions: Chronic toxicity, beagle, Oral, Feed, dose end: 12 month, group: systemic
mouse [11] = conditions: Subchronic oral toxicity in rodents, cd1, Feed, dose end: 6 week, group: systemic, systemic / in life observation / body weight / body weight gain + systemic / organ weight / liver / absolute + systemic / organ weight / …
mouse [12] = conditions: Carcinogenicity, cd1, Oral, Feed, dose end: 18 month, group: systemic
rat [13] = conditions: Multigenerational reproductive toxicity study, sprague dawley, Oral, Feed, dose end: 2 generation
[14] = systemic / in life observation / body weight / body weight gain + systemic / clinical chemistry / alkaline phosphatase (alp/alk) / alkaline …
[15] = systemic / organ weight / ovary / absolute + systemic / organ weight / ovary / relative to body weight + systemic / organ weight / ovary / …
[16] = systemic / clinical chemistry / albumin-globulin ratio / albumin-globulin ratio + systemic / organ weight / liver / relative to body weight
[17] = systemic / in life observation / body weight / body weight + systemic / in life observation / body weight / body weight gain + systemic / in…
[18] = systemic / clinical chemistry / alanine aminotransferase (alt/sgpt) / alanine aminotransferase (alt/sgpt) + systemic / clinical chemistry / …
[19] = systemic / in life observation / clinical signs / moribundity
[20] = systemic / in life observation / body weight / body weight + systemic / in life observation / body weight / body weight gain
[21] = group: offspring, systemic / in life observation / body weight / offspring (pup) weight
[22] = group: offspring, systemic / in life observation / body weight / offspring (pup) weight + systemic / organ weight / liver / relative to body weight
[23] = group: parental, systemic / in life observation / body weight / body weight

Structure (SMILES): CC1=C(C(=O)Nc2ccccc2)SCCO1 [Carboxin]
- LOAEL (mouse [1]; systemic / in life observation / mortality / mortality): 451 mg/kg/day
- NOAEL (mouse [1]; systemic / in life observation / mortality / mortality + systemic / pathology microscopic / liver / hypertrophy): 9 mg/kg/day
- LEL (mouse [1]; systemic / pathology microscopic / liver / hypertrophy): 385 mg/kg/day
- NEL (mouse [1]; systemic / pathology microscopic / liver / hypertrophy + systemic / pathology microscopic / lung / adenoma): 8 mg/kg/day
- LOAEL (rat [2]; systemic / pathology microscopic / kidney / nephropathy): 10.5 mg/kg/day
- NOAEL (rat [2]; systemic / pathology microscopic / kidney / nephropathy + systemic / in life observation / clinical signs / defecation): 5.5 mg/kg/day
- LOAEL (dog [3]; systemic / in life observation / body weight / body weight gain): 15 mg/kg/day
- NEL (dog [3]; [14]): 1.3 mg/kg/day
- NOAEL (dog [3]; [14]): 1.3 mg/kg/day
- LEL (dog [3]; systemic / in life observation / body weight / body weight gain + systemic / hematology / mean corpuscular (cell) volume (mcv) / mean …): 15 mg/kg/day
- LEL (rat [4]): 9 mg/kg/day
- LOAEL (rat [4]): 9 mg/kg/day
- NEL (rat [4]): 0.8 mg/kg/day
- NOAEL (rat [4]): 0.8 mg/kg/day
- LOAEL (dog [5]; [15]): 17.7 mg/kg/day
- NEL (dog [5]; [15]): 5.9 mg/kg/day
- NOAEL (dog [5]; [15]): 9 mg/kg/day
- LEL (dog [5]; systemic / pathology microscopic / parathyroid gland / cyst + systemic / pathology microscopic / pituitary gland / cyst): 9 mg/kg/day
- LEL (rat [6]): 10 mg/kg/day
- LOAEL (rat [6]): 10 mg/kg/day
- NEL (rat [6]): < 10 mg/kg/day
- NOAEL (rat [6]): < 10 mg/kg/day

Structure (SMILES): O=C(O)C1(C(=O)Nc2ccc(Cl)cc2Cl)CC1 [Cyclanilide]
- LEL (mouse [7]): 364 mg/kg/day
- LOAEL (mouse [7]): 364 mg/kg/day
- NEL (mouse [7]): 38 mg/kg/day
- NOAEL (mouse [7]): 38 mg/kg/day
- LEL (rat [8]; [16]): 32.1 mg/kg/day
- NEL (rat [8]; [16]): < 32.1 mg/kg/day
- LOAEL (rat [8]; [17]): 113 mg/kg/day
- NOAEL (rat [8]; [17]): 54.6 mg/kg/day
- LOAEL (dog [9]): > 20 mg/kg/day
- NOAEL (dog [9]): ≥ 20 mg/kg/day
- LOAEL (dog [10]; [18]): 21.2 mg/kg/day
- NOAEL (dog [10]; [18]): 5.3 mg/kg/day
- LEL (dog [10]; [19]): 1.3 mg/kg/day
- NEL (dog [10]; [19]): < 1.3 mg/kg/day
- LEL (mouse [11]): 552 mg/kg/day
- LOAEL (mouse [11]): 552 mg/kg/day
- NEL (mouse [11]): 192 mg/kg/day
- NOAEL (mouse [11]): 192 mg/kg/day
- LEL (mouse [12]; [20]): 8.41 mg/kg/day
- LOAEL (mouse [12]; [20]): 168 mg/kg/day
- NEL (mouse [12]; [20]): < 8.41 mg/kg/day
- NOAEL (mouse [12]; systemic / in life observation / body weight / body weight + systemic / in life observation / body weight / body weight gain + systemic / …): 41.8 mg/kg/day
- LEL (rat [13]; [21]): 20.2 mg/kg/day
- LOAEL (rat [13]; [21]): 20.2 mg/kg/day
- NEL (rat [13]; [22]): 2 mg/kg/day
- NOAEL (rat [13]; [22]): 2 mg/kg/day
- LEL (rat [13]; [23]): 2 mg/kg/day
- LOAEL (rat [13]; [23]): 2 mg/kg/day
- NEL (rat [13]; [23]): < 2 mg/kg/day
- NOAEL (rat [13]; [23]): < 2 mg/kg/day
